Measured values taken from ChEMBL document CHEMBL6083236, “Identification of novel diarylpyrimidine derivatives as potent HIV-1 non-nucleoside reverse transcriptase inhibitors against wild-type and K103N mutant viruses” (Eur J Med Chem, 2024).

What was measured:
[1] = test system: Human immunodeficiency virus 1; assay: Antiviral activity against wild type HIV1 IIIB infected in human MT4 cells assessed as reduction in virus induced cytopathic effect incubated for 5 days by Spectrophotometric based MTT assay; assay type: functional, organism-based; conditions: Human immunodeficiency virus 1, IIIB, MT4, 120 h
[2] = test system: Human immunodeficiency virus 1; assay: Antiviral activity against HIV1 harboring RES056 mutant infected in human MT4 cells assessed as reduction in virus induced cytopathic effect incubated for 5 days by Spectrophotometric based MTT assay; assay type: functional, organism-based; conditions: Human immunodeficiency virus 1, RES056, MT4, 120 h
[3] = test system: MT4; assay: Cytotoxicity against human MT4 cells assessed as reduction in cell viability incubated for 5 days by Spectrophotometric based MTT assay; assay type: functional; conditions: MT4, 120 h, time 5 day
[4] = Selectivity index, ratio of CC50 for cytotoxicity against human MT4 cells to EC50 for antiviral activity against wild type HIV1 IIIB infected in human MT4 cells; conditions: MT4 cells
[5] = Selectivity index, ratio of CC50 for cytotoxicity against human MT4 cells to EC50 for antiviral activity against HIV1 RES056 mutant infected in human MT4 cells; conditions: MT4 cells
[6] = test system: Human immunodeficiency virus 1; assay: Antiviral activity against HIV1 harboring L100I mutant infected in human MT4 cells assessed as reduction in virus induced cytopathic effect incubated for 5 days by Spectrophotometric based MTT assay; assay type: functional, organism-based; conditions: Human immunodeficiency virus 1, MT4, 120 h
[7] = test system: Human immunodeficiency virus 1; assay: Antiviral activity against HIV1 harboring K103 N mutant infected in human MT4 cells assessed as reduction in virus induced cytopathic effect incubated for 5 days by Spectrophotometric based MTT assay; assay type: functional, organism-based; conditions: Human immunodeficiency virus 1, MT4, 120 h
[8] = test system: Human immunodeficiency virus 1; assay: Antiviral activity against HIV1 harboring Y181C mutant infected in human MT4 cells assessed as reduction in virus induced cytopathic effect incubated for 5 days by Spectrophotometric based MTT assay; assay type: functional, organism-based; conditions: Human immunodeficiency virus 1, MT4, 120 h
[9] = test system: Human immunodeficiency virus 1; assay: Antiviral activity against HIV1 harboring Y188L mutant infected in human MT4 cells assessed as reduction in virus induced cytopathic effect incubated for 5 days by Spectrophotometric based MTT assay; assay type: functional, organism-based; conditions: Human immunodeficiency virus 1, MT4, 120 h
[10] = test system: Human immunodeficiency virus 1; assay: Antiviral activity against HIV1 harboring E138K mutant infected in human MT4 cells assessed as reduction in virus induced cytopathic effect incubated for 5 days by Spectrophotometric based MTT assay; assay type: functional, organism-based; conditions: Human immunodeficiency virus 1, MT4, 120 h
[11] = test system: Human immunodeficiency virus 1; assay: Antiviral activity against HIV1 harboring F227L/V106A mutant infected in human MT4 cells assessed as reduction in virus induced cytopathic effect incubated for 5 days by Spectrophotometric based MTT assay; assay type: functional, organism-based; conditions: Human immunodeficiency virus 1, MT4, 120 h
[12] = target: Human immunodeficiency virus type 1 reverse transcriptase (Human immunodeficiency virus 1, UniProt Q72547); assay: Inhibition of wild type HIV1 reverse transcriptase assessed as inhibition of biotin deoxyuridine triphosphate incorporation into cDNA using DIG-labelled dNTP preincubated with compound for 1 hr followed by substrate addition in presence of biotin-labeled dNTPs by ELISA analysis

| SMILES | EC50 [1] [nM] | EC50 [2] [nM] | CC50 [3] [nM] | selectivity ratio [4] | selectivity ratio [5] | EC50 [6] [nM] | EC50 [7] [nM] | EC50 [8] [nM] | EC50 [9] [nM] | EC50 [10] [nM] | EC50 [11] [nM] | IC50 [12] [nM] |
| --- | --- | --- | --- | --- | --- | --- | --- | --- | --- | --- | --- | --- |
| Cc1cc(/C=C/C#N)cc(C)c1Oc1ccnc(Nc2ccc(N3CCN(S(C)(=O)=O)C3=O)c(C#N)c2)n1 | 1 | 180 | 35300 | 29900 | 192 | 6 | 2 | 14 | 1770 | 38 | 110 | 240 |
| Cc1cc(/C=C/C#N)cc(C)c1Oc1ccnc(Nc2ccc(N3CCN(S(N)(=O)=O)CC3)c(C#N)c2)n1 | 4 | 230 | 5880 | 1540 | 26 | 7 | 3 | 32 | 1170 | 29 | 13 | 130 |
